Experimental data published in ChEMBL document CHEMBL1201862, “PubChem BioAssay data set” (2004).
Active and inactive are the calls of the source.

How the values were obtained:
[1] = Counterscreen for […] of the human trace amine associated receptor 1 (TAAR1): Fluorescence-based cell-based high throughput dose response assay to identify nonselective Ga16 agonists.; format: functional
[2] = Counterscreen for antagonists of the human trace amine associated receptor 1 (hTAAR1): Fluorescence-based cell-based high throughput dose response assay to identify nonselective Ga16 antagonists.; format: functional
cells [3] = experiment: cells
Major prion protein = Major prion protein (Homo sapiens, UniProt P04156); format: functional, cell-based
[4] = target: T1, Sentrin-specific protease 8 (Homo sapiens, UniProt Q96LD8); format: functional
T1 sequence (Q96LD8 whole entry): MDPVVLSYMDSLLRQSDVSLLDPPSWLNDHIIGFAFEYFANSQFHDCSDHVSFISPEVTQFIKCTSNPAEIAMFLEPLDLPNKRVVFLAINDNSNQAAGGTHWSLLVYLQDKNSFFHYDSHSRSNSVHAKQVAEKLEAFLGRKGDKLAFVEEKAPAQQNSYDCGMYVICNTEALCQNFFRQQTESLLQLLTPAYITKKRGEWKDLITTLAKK

Protein RecA = target: T2, Protein RecA (Mycobacterium tuberculosis, UniProt P9WHJ3); experiment: Fluorescence Cell-Free Homogeneous Dose Retest to Identify Inhibitors of RecA-Intein Splicing Activity. [Related pubchem assays (depositor defined):AID2097, AID2223, AID489010, AID492950]; format: functional
T2 sequence (P9WHJ3 whole entry): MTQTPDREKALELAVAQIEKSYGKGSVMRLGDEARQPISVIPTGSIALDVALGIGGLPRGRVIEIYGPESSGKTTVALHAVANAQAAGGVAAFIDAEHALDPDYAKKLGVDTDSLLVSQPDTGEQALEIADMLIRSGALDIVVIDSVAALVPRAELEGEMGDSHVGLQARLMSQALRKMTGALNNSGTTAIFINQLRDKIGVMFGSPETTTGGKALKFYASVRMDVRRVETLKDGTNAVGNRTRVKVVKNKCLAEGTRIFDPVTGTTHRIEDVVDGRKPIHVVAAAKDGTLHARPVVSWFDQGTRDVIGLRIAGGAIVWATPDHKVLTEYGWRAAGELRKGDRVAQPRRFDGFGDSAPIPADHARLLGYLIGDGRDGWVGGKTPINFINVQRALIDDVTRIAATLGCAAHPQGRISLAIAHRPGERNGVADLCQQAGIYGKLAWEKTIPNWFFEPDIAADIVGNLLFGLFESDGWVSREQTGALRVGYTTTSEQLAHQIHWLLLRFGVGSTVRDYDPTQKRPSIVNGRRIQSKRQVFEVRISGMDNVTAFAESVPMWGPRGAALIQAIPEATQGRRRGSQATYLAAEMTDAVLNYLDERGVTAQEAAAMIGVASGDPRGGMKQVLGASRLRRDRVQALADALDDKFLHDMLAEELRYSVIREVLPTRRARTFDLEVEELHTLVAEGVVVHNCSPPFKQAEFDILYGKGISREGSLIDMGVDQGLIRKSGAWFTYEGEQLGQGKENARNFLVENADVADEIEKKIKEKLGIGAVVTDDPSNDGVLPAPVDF

[5] = target: T1, Sentrin-specific protease 8; format: functional; remark: listed apart in the source
[6] = target: T3, Replicative DNA helicase DnaB (Mycobacterium tuberculosis, UniProt P9WMR3); experiment: DnaB intein splicing inhibitors, dose response, biochemical, cell-free fluorescence (AID 449749); format: functional
T3 sequence (P9WMR3 whole entry): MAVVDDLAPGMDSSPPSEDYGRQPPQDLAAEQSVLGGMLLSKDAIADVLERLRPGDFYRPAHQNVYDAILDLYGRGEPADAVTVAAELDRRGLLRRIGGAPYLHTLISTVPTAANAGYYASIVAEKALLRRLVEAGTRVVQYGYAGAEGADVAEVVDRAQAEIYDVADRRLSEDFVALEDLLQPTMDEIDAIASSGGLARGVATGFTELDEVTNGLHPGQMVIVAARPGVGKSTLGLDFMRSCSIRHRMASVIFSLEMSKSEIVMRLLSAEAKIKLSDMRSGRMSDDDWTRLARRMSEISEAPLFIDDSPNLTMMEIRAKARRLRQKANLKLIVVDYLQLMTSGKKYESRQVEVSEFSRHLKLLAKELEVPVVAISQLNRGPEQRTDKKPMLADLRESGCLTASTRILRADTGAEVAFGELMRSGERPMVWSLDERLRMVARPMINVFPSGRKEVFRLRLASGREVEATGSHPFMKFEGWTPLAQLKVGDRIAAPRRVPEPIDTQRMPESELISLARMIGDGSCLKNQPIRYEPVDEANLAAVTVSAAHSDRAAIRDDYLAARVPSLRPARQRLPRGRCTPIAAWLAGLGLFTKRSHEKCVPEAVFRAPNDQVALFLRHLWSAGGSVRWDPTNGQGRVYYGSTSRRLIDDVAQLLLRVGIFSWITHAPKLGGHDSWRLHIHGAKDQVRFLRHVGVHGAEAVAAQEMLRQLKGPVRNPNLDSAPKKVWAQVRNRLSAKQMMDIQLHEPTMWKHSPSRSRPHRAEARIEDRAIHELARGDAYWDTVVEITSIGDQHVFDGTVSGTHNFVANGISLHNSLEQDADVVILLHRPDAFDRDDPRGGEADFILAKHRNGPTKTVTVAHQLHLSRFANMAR

[7] = target: T4, Sentrin-specific protease 1 (Homo sapiens, UniProt Q9P0U3); experiment: Dose response confirmation of small molecule inhibitors of the catalytic domain of the SUMO protease, SENP1 in a FRET assay.; format: functional; settings: read-out: IC50_Mean
[8] = target: T4, Sentrin-specific protease 1; experiment: SENP1 catalytic domain blockers, concentration series – biochemical, kinetic FRET, dose response (AID 651697); format: functional; settings: read-out: IC50_Mean
[9] = target: Matrix metalloproteinase-14 (Homo sapiens, UniProt P50281); experiment: Dose Response confirmation of uHTS hits for a small molecule inhibitors of MT1-MMP activation in a fluorescence assay set 1.; format: functional
BJ [10] = experiment: BJ-TERT fibroblast viability loss – cell-based, RAS-independent, luminescence, dose response (AID 1933); format: functional; settings: Homo sapiens
BJ [11] = experiment: BJ-TERT-LT-ST fibroblast viability loss – cell-based, RAS-independent, luminescence, dose response (AID 1935); format: functional; settings: Homo sapiens;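 further: BJ fibroblasts immortalized with TERT plus LT and ST oncogenes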
[12] = target: ADP-ribosylation factor GTPase-activating protein 1 (Rattus norvegicus, UniProt Q62848); experiment: Fluorescence polarization-based biochemical high throughput dose response screening assay to identify inhibitors of ADP-ribosylation factor GTPase activating protein 1 (ARFGAP1).; format: functional
[13] = DRD fibroblast viability loss – cell-based, non-viral oncogenic, luminescence, dose response (AID 1934); format: functional; settings: Homo sapiens
BJ [14] = experiment: cells; format: functional, cell-based; settings: Homo sapiens
[15] = target: T5, RNA-binding protein pos-1 (Caenorhabditis elegans, UniProt G5EF15); experiment: disruptors of C. elegans POS-1 RNA interaction – biochemical, fluorescence polarization, dose response (AID 1964);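 further: purified POS-1 fused to maltose binding protein made in E. coli; potency of compounds blocking POS-1 binding to fluorescent RNA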
T5 sequence (G5EF15 whole entry): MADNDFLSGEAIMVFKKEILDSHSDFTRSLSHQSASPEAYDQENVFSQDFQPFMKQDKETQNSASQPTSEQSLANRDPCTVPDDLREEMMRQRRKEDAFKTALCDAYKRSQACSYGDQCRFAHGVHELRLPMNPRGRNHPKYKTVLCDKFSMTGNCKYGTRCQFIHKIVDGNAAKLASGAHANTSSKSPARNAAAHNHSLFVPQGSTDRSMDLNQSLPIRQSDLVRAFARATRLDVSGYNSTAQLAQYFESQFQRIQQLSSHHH

[16] = target: Neurotensin receptor type 1 (Homo sapiens, UniProt P30989); format: functional;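 further: Image-based confirmatory dose-response assay measuring agonist activity at NTR1; NTR1-expressing U2OS osteosarcoma cells imaged for beta-arrestin GFP spot formation; agonist potency where compounds increase beta-arrestin recruitment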
[17] = target: T6, Zinc finger protein mex-5 (Caenorhabditis elegans, UniProt Q9XUB2); experiment: potency of MEX-5 RNA-binding blockers – biochemical, C. elegans, fluorescence polarization, dose response (AID 1960)
T6 sequence (Q9XUB2 whole entry): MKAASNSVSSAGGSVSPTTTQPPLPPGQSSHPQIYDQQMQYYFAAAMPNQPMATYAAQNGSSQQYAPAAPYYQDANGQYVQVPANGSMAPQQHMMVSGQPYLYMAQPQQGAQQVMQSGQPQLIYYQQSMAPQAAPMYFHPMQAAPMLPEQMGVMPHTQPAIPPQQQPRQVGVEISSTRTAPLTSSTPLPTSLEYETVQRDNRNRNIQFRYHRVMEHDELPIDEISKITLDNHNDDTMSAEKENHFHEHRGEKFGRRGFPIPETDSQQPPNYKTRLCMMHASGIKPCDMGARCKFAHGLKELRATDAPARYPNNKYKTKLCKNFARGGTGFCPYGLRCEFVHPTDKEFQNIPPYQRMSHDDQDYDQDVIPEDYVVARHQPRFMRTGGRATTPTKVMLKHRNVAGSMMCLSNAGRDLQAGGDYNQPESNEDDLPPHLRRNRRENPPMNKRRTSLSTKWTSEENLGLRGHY

[18] = THP-1 cell cytotoxicity, dose response, cytotoxicity control for non-replicating M. tuberculosis project (AID 489025); format: functional
[19] = microbe, parasite or virus in culture; format: functional; settings: Mycobacterium tuberculosis
[20] = target: 1-phosphatidylinositol 4,5-bisphosphate phosphodiesterase beta-3 (Homo sapiens, UniProt Q01970); experiment: Fluorescence-based biochemical high throughput dose response assay to identify inhibitors of phospholipase C isozymes (PLC-B3).
cells [21] = format: functional
[22] = target: 1-phosphatidylinositol 4,5-bisphosphate phosphodiesterase gamma-1 (Homo sapiens, UniProt P19174); experiment: Counterscreen for inhibitors of phospholipase C isozymes (PLC-B3): Fluorescence-based biochemical high throughput dose response assay to identify inhibitors of phospholipase C isozymes (PLC-gamma1).
1-phosphatidylinositol 4,5-bisphosphate phosphodiesterase gamma-1, sequence (P19174 whole entry): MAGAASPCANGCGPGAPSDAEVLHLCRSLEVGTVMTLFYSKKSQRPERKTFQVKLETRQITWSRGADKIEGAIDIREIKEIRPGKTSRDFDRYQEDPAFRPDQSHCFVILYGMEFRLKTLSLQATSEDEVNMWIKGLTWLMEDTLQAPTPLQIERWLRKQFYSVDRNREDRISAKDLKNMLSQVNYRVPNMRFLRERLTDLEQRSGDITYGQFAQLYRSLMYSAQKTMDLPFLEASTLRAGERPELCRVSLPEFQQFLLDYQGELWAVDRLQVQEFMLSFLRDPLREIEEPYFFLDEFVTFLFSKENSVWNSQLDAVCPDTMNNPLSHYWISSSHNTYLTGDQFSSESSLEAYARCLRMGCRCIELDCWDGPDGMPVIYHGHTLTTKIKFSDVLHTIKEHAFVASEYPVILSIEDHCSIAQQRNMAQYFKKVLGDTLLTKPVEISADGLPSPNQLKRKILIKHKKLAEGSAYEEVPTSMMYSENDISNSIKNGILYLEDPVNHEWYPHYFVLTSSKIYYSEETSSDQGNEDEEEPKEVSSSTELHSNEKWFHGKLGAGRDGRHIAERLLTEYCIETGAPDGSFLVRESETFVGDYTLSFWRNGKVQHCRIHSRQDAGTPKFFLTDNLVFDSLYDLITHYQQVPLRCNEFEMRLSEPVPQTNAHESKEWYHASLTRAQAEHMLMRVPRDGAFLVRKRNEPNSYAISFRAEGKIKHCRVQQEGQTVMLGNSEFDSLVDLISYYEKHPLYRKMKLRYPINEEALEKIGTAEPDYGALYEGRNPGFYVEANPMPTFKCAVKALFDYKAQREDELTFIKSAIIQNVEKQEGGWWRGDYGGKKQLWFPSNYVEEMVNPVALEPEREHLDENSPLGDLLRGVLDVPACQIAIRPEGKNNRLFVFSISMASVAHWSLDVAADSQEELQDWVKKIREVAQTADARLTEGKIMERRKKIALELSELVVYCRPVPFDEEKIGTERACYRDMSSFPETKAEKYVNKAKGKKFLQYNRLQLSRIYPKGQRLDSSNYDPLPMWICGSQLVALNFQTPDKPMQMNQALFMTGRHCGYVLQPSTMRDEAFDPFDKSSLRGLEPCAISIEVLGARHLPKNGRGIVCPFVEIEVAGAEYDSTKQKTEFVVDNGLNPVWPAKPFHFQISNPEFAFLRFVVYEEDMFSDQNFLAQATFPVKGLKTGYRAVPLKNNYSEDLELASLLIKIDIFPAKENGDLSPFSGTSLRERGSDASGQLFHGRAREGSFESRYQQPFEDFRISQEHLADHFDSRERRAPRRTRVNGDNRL

T4 sequence (Q9P0U3 whole entry, the tested form may be a part): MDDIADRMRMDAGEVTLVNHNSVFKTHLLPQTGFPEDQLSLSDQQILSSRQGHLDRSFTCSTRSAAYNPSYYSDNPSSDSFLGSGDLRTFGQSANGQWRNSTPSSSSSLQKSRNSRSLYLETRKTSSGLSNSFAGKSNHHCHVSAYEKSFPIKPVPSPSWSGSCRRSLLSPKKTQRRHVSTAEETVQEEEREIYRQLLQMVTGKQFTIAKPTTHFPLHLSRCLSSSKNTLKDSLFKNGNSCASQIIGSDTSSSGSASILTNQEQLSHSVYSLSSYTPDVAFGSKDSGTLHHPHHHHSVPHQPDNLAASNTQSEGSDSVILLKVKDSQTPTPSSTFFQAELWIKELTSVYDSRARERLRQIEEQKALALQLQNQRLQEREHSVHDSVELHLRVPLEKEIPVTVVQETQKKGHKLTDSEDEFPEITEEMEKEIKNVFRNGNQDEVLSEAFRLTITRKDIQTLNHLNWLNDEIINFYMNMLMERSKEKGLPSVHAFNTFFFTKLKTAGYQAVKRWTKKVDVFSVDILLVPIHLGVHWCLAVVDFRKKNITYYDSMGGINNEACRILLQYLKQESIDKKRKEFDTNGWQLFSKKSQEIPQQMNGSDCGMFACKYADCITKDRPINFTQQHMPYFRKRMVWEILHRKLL
1-phosphatidylinositol 4,5-bisphosphate phosphodiesterase beta-3, sequence (Q01970 whole entry): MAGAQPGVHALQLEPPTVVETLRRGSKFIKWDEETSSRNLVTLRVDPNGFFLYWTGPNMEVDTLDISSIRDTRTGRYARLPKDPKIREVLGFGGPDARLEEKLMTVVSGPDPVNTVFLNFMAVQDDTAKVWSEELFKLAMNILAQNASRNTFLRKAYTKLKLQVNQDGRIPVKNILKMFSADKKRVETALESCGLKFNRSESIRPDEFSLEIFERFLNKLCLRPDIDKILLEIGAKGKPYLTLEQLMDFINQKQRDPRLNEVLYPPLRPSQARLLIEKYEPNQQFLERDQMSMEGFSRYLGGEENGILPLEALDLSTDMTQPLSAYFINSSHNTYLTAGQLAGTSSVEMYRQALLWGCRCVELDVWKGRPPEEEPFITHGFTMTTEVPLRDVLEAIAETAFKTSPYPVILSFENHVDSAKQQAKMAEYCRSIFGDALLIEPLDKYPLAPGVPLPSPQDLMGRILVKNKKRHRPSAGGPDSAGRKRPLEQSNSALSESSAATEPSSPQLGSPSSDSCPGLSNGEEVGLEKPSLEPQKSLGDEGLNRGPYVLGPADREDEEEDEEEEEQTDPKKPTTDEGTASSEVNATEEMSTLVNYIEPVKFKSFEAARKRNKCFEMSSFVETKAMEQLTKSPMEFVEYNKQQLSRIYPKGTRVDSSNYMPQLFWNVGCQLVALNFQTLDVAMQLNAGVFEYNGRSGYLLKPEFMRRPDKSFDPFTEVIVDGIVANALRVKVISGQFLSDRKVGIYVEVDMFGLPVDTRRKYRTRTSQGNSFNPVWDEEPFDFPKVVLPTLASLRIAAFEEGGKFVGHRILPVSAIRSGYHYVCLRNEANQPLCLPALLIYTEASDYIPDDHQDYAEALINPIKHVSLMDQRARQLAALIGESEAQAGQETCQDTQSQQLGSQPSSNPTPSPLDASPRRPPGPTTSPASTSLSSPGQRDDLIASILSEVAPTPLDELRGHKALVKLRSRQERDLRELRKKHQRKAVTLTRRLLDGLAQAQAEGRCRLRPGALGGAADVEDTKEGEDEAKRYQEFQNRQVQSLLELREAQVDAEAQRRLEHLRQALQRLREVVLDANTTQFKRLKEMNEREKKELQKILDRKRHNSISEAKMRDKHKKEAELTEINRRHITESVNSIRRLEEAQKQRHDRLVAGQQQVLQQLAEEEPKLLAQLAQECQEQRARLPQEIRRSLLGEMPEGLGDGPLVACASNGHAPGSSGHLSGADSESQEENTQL
ADP-ribosylation factor GTPase-activating protein 1, sequence (Q62848 whole entry): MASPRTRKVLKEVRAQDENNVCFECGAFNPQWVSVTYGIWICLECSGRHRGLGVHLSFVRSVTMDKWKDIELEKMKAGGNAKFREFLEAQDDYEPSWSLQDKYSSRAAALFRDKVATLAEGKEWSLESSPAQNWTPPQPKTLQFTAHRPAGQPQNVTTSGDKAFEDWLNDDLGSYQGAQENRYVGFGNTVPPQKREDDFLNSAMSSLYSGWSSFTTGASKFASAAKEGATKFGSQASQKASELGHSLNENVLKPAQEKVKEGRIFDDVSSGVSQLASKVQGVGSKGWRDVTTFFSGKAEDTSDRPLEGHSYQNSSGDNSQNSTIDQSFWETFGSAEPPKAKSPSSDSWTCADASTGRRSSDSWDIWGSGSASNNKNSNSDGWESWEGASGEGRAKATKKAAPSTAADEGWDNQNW
Neurotensin receptor type 1, sequence (P30989 whole entry): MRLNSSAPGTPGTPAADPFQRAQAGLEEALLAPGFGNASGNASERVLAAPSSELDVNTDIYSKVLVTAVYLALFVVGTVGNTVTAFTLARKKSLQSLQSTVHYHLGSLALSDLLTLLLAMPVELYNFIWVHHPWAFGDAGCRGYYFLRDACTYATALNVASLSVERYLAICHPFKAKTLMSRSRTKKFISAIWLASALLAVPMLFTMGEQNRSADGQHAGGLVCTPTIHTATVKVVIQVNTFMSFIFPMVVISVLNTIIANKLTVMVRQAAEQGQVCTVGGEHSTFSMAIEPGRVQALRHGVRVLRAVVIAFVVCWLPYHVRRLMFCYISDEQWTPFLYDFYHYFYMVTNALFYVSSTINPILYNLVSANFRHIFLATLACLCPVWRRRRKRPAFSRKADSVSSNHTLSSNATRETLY

With `CC(=O)c1ccc(NC(=O)c2ccc(COc3ccccc3[N+](=O)[O-])o2)cc1` the EC50 [1] was > 29.9 µM (inactive) and the IC50 [2] was > 29.9 µM (inactive).

In the case of `c1ccc2sc(Nc3nc4cc5c(cc4s3)OCO5)nc2c1`, the IC50 (cells [3]) is reported as > 138 µM (inactive) and the IC50 (Major prion protein) is reported as 8.57 µM (active).

For `Cc1cc(C)nc(N2N=C(C(C)(C)C)CC2=O)n1`, the IC50 [4] was 8.2 µM (active), the EC50 (Protein RecA) was 10.9 µM (active) and the IC50 [5] was 12.1 µM (active). The AC50 [6] was 14.9 µM (active).

With `Cc1cc(C(=O)NCc2ccccc2F)c2ccccc2n1` the IC50 [7] was 10.8 µM (active) and the IC50 [8] was 17.9 µM (active).

With `CC(=O)Oc1ccc2oc(/C=C/N(C)C)c([N+](=O)[O-])c2c1` the IC50 [9] was 56.8 µM (inactive).

For `COc1cc2c3nnc(-c4ccc(F)cc4)c-3cn(Cc3ccc(C)cc3)c2cc1OC`, the EC50 (BJ [10]) was 5.16 µM (inconclusive), the EC50 (BJ [11]) was 4.86 µM (active) and the IC50 [12] was 70 µM (inactive). For the same compound, the EC50 [13] was 10.4 µM (active), the EC50 (BJ [14]) was 17.3 µM (active) and the EC50 [15] was 2.2 µM (inconclusive). The EC50 [16] was 2.4 µM (active) and the EC50 [17] was 1.1 µM (inconclusive).

For `Cc1c([N+](=O)[O-])cnc(Sc2ccccc2)c1[N+](=O)[O-]`, the CC50 [18] was 26.1 µM (active), the EC50 (Protein RecA) was 0.0479 µM (active) and the CC50 [19] was 30.3 µM (active). For the same compound, the IC50 [20] was > 122 µM (inactive), the IC50 (cells [21]) was 7.94 µM (active) and the AC50 [6] was 0.181 µM (active). For the same compound, the IC50 [22] was > 122 µM (inactive).
